Test results: ChEMBL document CHEMBL4680277, “Targeting Metabolism of Extracellular Nucleotides via Inhibition of Ectonucleotidases CD73 and CD39” (J Med Chem, 2020)

Assays:
[1] = target: T1, 5'-nucleotidase (Homo sapiens, UniProt P21589); assay: Inhibition of human C-terminal 6His-tagged CD73 (1 to 547 residues) expressed in HEK293F cells using 2 uM AMP as substrate by rapidfire mass spectrometry assay
[2] = target: T1, 5'-nucleotidase; assay: Inhibition of human CD73 expressed in CHO cells using AMP as substrate preincubated for 10 mins followed by substrate addition and measured every minute for 10 to 20 mins by PNP coupled enzyme assay; type: cell-based
[3] = target: T1, 5'-nucleotidase; assay: Inhibition of human C-terminal 6His-tagged CD73 ( Trp27 to Lys547 residues) expressed in CHO cells using CMP as substrate incubated for 20 mins by malachite Green assay
[4] = target: T1, 5'-nucleotidase; assay: Inhibition of recombinant human CD73 using AMP as substrate incubated for 90 mins by malachite green colorimetric assay
[5] = target: T1, 5'-nucleotidase; assay: Inhibition of recombinant human CD73 using AMP as substrate incubated for 120 mins by CellTiter-Glo assay
[6] = target: T1, 5'-nucleotidase; assay: Inhibition of human C-terminal His6-tagged CD73 expressed in HEK293F cells using [15N]5-AMP as substrate preincubated for 1 hr followed by substrate addition and measured after 8 mins by MS/MS assay
[7] = target: T2, 5'-nucleotidase (Rattus norvegicus, UniProt P21588); assay: Inhibition of rat CD73 expressed in baculovirus infected insect cells using AMP substrate by capillary electrophoresis assay
T2 sequence (P21588 whole entry): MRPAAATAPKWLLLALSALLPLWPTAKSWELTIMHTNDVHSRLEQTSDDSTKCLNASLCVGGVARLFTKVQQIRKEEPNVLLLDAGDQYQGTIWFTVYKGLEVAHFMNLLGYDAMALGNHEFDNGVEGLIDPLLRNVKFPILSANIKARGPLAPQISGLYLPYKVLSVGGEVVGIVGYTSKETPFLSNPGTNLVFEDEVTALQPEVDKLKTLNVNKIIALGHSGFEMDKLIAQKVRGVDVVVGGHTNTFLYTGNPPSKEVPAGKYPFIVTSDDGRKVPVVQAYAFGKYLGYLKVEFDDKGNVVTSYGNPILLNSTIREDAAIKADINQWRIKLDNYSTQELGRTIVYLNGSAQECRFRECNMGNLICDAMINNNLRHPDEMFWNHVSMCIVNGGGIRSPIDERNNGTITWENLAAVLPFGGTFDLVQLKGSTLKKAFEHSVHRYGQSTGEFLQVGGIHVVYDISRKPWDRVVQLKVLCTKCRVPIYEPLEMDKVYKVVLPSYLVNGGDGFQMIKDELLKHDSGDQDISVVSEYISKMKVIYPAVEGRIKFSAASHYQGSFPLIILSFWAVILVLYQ

[8] = target: T1, 5'-nucleotidase; assay: Inhibition of CD73 in human melanoma 1539 cells using AMP substrate by capillary electrophoresis assay; type: cell-based, NW1539
[9] = Inhibition of human FLAG-tagged CD73 Thr376Ala mutant (1 to 552 residues) assessed as reduction in adenosine formation using AMP as substrate preincubated for 10 mins followed by substrate addition and measured after 30 mins by rapidfire mass spectrometry assay
[10] = target: T3, Ectonucleoside triphosphate diphosphohydrolase 1 (Rattus norvegicus, UniProt P97687); assay: Inhibition of rat CD39 expressed in CHO cells using ATP as substrate incubated for 10 mins by UV absorbance method; type: cell-based; conditions: cho
T3 sequence (P97687 whole entry): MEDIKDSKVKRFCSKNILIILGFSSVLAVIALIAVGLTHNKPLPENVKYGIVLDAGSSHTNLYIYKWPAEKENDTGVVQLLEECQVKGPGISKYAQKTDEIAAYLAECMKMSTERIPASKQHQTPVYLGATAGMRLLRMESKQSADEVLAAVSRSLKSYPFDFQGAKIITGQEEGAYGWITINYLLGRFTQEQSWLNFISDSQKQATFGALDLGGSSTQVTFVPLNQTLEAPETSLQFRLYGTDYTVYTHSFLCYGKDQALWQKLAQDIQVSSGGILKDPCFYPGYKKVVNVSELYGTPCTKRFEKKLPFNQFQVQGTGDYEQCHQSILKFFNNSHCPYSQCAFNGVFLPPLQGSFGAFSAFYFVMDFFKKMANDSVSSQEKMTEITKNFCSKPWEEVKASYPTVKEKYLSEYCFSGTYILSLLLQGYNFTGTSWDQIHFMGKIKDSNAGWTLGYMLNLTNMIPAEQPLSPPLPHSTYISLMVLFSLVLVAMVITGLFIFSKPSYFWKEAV

[11] = target: T4, Ectonucleoside triphosphate diphosphohydrolase 2 (Rattus norvegicus, UniProt O35795); assay: Inhibition of rat NTPDase2 expressed in CHO cells using ATP as substrate incubated for 10 mins by UV absorbance method; type: cell-based; conditions: cho
T4 sequence (O35795 whole entry): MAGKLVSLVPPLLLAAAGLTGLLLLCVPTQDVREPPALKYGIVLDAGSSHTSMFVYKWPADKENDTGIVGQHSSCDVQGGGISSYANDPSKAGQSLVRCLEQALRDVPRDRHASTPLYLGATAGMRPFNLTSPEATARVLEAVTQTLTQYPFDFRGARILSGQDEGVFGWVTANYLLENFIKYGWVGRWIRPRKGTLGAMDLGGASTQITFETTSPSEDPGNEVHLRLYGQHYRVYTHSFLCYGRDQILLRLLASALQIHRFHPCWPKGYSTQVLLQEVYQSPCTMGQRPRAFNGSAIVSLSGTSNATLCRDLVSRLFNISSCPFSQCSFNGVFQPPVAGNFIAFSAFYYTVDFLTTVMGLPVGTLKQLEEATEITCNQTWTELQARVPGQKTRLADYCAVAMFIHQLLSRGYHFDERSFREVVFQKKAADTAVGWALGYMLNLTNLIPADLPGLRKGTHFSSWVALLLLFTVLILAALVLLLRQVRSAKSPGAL

[12] = Inhibition of rat NTPDase3 expressed in CHO cells using ATP as substrate incubated for 10 mins by UV absorbance method; type: cell-based
[13] = Half-life in human at 25 mg, iv infusion dosed once every 2 weeks; type: ADME, organism-based; conditions: in vivo

T1 sequence (P21589 whole entry, the tested form may be a part): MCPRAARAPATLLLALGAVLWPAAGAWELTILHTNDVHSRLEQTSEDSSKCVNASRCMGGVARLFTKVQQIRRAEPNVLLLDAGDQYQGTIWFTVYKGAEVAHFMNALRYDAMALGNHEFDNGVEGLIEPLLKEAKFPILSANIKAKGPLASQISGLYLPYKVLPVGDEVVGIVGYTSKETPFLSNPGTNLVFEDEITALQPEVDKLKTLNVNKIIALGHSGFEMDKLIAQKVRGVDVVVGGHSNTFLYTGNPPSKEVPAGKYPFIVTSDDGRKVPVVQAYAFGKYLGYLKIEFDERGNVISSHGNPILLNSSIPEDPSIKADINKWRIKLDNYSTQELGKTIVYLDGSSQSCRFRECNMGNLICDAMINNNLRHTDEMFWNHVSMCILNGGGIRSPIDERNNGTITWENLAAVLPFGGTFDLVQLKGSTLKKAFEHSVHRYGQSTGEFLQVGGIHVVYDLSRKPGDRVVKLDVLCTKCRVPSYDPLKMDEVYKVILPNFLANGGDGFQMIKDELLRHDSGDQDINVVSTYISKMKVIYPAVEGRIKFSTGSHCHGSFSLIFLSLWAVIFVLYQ

SMILES | IC50 [1] | further results
C[C@@H](Nc1nc(Cl)nc2c1ncn2[C@@H]1O[C@H](CS(=O)(=O)CP(=O)(O)O)[C@@H](O)[C@H]1O)c1ccccc1 | – | IC50 [2]: < 10 nM
O=c1[nH]cc(-c2cc(C3CCC3)c(Cl)nn2)c(=O)[nH]1 | < 62 nM | –
N#Cc1nnc(-c2c[nH]c(=O)[nH]c2=O)cc1[C@@H]1CC1(F)F | < 62 nM | –
CCOC(=O)C(OC[C@H]1C[C@@H](n2nnc3c(NC[C@@H]4CCOC4)nc(Cl)nc32)[C@H](O)[C@@H]1O)P(=O)(O)O (some centres not stated) | – | IC50 [3]: < 100 nM
Nc1ncnc2c1ncn2[C@@H]1O[C@H](COP(=O)(O)CP(=O)(O)O)[C@@H](O)[C@H]1O [PHOSPHOMETHYLPHOSPHONIC ACID ADENOSYL ESTER] | – | IC50 [4]: 1100 nM; IC50 [5]: 2500 nM; IC50 [6]: 60 nM; IC50 [2]: 50 nM; Ki [7]: 870 nM; Ki [8]: 510 nM
NC(=O)c1cc2c(c(Cl)c1O)NCCOCCCCCc1cc(cc3[nH]ccc13)NS2(=O)=O | – | IC50 [9]: 4 nM
O=c1[nH]cc(-c2cc(C3CC(F)(F)C3)c(Cl)nn2)c(=O)[nH]1 | < 62 nM | –
Nc1c(S(=O)(=O)O)cc(Nc2ccc(Cl)cc2)c2c1C(=O)c1ccccc1C2=O | – | Ki [10]: 15700 nM; Ki [11]: 18000 nM; Ki [12]: 16400 nM
COc1nnc(-c2c[nH]c(=O)[nH]c2=O)cc1C1CC(C)(C)C1 | < 62 nM | –
CC1(C)CC(c2cc(-c3c[nH]c(=O)[nH]c3=O)nnc2Cl)C1 | < 62 nM | –
Cc1nnc(-c2c[nH]c(=O)[nH]c2=O)cc1[C@H]1C[C@@H]1CC(C)C | < 62 nM | –
O=c1[nH]cc(-c2cc([C@H]3CC3(F)F)c(Cl)nn2)c(=O)[nH]1 | < 62 nM | –
C[C@H](Nc1cc(Cl)nc2c1cnn2[C@@H]1O[C@H](COP(=O)(O)CP(=O)(O)O)[C@@H](O)[C@H]1O)c1ccccc1F | – | half-life [13]: 74 h

Continued, in another order:

IC50 [1] | SMILES | further results
< 62 nM | Cc1nnc(-c2c[nH]c(=O)[nH]c2=O)cc1[C@H]1C[C@@H]1CCF | –
< 62 nM | COc1nnc(-c2c[nH]c(=O)[nH]c2=O)cc1C1CC(F)(F)C1 | –
< 62 nM | CC(C)[C@H]1C[C@@H]1c1cc(-c2c[nH]c(=O)[nH]c2=O)nnc1Cl | –
< 62 nM | N#Cc1nnc(-c2c[nH]c(=O)[nH]c2=O)cc1C1CC1 | –
< 62 nM | N#Cc1nnc(-c2c[nH]c(=O)[nH]c2=O)cc1[C@H]1C[C@@H]1C(F)F | –
< 62 nM | CC(C)[C@H]1C[C@@H]1c1cc(-c2c[nH]c(=O)[nH]c2=O)nnc1C#N | –
< 62 nM | O=c1[nH]cc(-c2cc(C3CC3)c(Cl)nn2)c(=O)[nH]1 | –
